PMC12150293 (RSC Advances, 2025)
Read-outs that look alike come from different tables or passages of the source.

Columns and labels:
A549 cells = experiment: MTT cytotoxicity assay on non-small cell lung cancer cells; settings: for IC50: read-out: A549 IC50
BEAS-2B cells = experiment: MTT cytotoxicity assay on normal human lung epithelial cells; settings: 48 h, read-out: BEAS-2B IC50
MDA-MB-231 cells = experiment: MTT cytotoxicity assay on breast cancer cells; settings: for IC50: read-out: MDA-MB-231 IC50
EGFR^WT = EGFR^WT (Homo sapiens, UniProt P00533); experiment: EGFR^WT kinase inhibition assay; assay type: biochemical
EGFR^WT, sequence (P00533 25-1210): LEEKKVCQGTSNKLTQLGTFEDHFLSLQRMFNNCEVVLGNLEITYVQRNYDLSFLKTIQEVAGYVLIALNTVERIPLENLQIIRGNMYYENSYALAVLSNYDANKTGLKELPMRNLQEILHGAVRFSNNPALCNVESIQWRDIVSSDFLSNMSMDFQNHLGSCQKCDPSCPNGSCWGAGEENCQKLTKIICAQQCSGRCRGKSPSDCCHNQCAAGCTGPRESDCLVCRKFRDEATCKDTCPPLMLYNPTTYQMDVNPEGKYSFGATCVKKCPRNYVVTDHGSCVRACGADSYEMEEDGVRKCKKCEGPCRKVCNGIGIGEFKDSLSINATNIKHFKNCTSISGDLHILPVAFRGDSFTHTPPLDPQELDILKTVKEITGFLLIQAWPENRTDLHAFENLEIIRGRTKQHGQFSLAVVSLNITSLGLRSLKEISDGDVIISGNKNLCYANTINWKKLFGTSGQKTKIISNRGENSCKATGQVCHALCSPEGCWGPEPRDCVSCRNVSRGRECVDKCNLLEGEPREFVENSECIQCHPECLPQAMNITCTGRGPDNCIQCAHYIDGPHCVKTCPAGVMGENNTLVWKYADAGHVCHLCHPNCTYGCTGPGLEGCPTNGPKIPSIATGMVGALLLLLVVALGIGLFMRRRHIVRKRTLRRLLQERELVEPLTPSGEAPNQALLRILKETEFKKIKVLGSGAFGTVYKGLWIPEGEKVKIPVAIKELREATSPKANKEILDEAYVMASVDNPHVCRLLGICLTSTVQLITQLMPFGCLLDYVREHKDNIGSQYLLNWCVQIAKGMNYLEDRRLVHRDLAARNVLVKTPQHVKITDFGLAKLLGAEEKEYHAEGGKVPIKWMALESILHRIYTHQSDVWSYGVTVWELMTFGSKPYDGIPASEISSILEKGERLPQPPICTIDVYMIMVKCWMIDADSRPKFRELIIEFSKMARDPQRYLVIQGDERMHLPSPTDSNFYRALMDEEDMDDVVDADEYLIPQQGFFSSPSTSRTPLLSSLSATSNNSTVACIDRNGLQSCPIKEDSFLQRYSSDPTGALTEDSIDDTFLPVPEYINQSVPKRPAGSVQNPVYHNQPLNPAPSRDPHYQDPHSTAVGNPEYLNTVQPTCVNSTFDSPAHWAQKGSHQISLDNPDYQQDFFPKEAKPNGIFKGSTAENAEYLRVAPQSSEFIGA

miRNA-200c [1] = experiment: miRNA-200c expression in A549 cells; assay type: cell-based, human; settings: enhancement
TGF [2] = experiment: mRNA expression; assay type: cell-based, human; settings: A549 cells
miRNA-200c [3] = experiment: miRNA-200c expression in MDA-MB-231 cells; assay type: cell-based, human; settings: elevation
TGF [4] = experiment: mRNA expression; assay type: cell-based, human; settings: MDA-MB-231 cells; reduction to
c-Myc [5] = experiment: mRNA expression; assay type: cell-based, human; settings: A549 cells
miRNA-132 [6] = experiment: miRNA-132 expression in A549 cells; assay type: cell-based, human; settings: enhancement
c-Myc [7] = experiment: mRNA expression; assay type: cell-based, human; settings: MDA-MB-231 cells; reduction to
caspase-9 = experiment: Caspase-9 activation assay; assay type: cell-based, human; settings: A549 cells, compound at its IC50 concentration, 48 h
CD-44 = experiment: mRNA expression; assay type: cell-based, human; settings: MDA-MB-231 cells; reduction to
VEGF = experiment: mRNA expression; assay type: cell-based, human; settings: MDA-MB-231 cells; reduction to
caspase-3 = experiment: Caspase-3 activation assay; assay type: cell-based, human; settings: A549 cells, compound at its IC50 concentration, 48 h
miRNA-132 [8] = experiment: miRNA-132 expression in MDA-MB-231 cells; assay type: cell-based, human; settings: elevation
CD-133 = experiment: mRNA expression; assay type: cell-based, human; settings: MDA-MB-231 cells; reduction to
EGFR^L858R/T790M/C797S = EGFR^L858R/T790M/C797S (Homo sapiens, UniProt P00533, C797S/L858R/T790M); experiment: biochemical
EGFR^L858R/T790M/C797S, sequence (P00533 25-1210 T790M/C797S/L858R): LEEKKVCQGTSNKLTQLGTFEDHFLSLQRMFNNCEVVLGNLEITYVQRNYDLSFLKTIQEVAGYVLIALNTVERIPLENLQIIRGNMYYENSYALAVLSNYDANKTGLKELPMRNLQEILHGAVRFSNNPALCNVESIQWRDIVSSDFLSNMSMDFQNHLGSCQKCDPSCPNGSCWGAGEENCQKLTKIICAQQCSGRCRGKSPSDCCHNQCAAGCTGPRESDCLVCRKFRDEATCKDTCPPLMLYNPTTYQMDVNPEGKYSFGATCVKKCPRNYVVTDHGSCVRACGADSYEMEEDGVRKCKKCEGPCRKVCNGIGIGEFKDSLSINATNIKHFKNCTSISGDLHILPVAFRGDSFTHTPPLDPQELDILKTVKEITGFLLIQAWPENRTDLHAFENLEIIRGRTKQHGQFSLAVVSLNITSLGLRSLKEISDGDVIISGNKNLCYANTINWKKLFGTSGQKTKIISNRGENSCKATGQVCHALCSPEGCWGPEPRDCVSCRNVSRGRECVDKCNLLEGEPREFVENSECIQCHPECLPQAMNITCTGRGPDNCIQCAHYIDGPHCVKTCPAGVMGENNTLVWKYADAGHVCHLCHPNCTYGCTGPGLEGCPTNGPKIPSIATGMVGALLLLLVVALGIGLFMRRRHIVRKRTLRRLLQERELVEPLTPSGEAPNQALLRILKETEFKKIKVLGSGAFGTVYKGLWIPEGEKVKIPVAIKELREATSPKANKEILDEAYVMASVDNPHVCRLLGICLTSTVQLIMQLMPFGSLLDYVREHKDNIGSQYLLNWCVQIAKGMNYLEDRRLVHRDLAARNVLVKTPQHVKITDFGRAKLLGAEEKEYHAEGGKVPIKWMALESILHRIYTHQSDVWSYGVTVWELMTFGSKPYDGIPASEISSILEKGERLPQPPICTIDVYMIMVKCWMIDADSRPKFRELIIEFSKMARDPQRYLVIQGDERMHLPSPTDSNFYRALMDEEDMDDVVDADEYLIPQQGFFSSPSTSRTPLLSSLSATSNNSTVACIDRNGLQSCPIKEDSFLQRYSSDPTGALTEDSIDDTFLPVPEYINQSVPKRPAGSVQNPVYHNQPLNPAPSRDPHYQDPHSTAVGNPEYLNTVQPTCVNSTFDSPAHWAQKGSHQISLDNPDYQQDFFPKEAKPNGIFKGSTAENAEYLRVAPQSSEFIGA

Compound	IC50 (A549 cells; Homo sapiens, A549, 48 h)	IC50 (BEAS-2B cells)	IC50 (MDA-MB-231 cells; Homo sapiens, MDA-MB-231, 48 h)	further results
O=C(Nc1ccc([N+](=O)[O-])cc1)C(c1ccc(C(F)(F)F)cc1)N(C(=O)c1ccc2ccccc2n1)c1ccccc1 (stereo not shown) [Compound 18, N-(2-((4-Nitrophenyl)amino)-2-oxo-1-(4-(trifluoromethyl)phenyl)ethyl)-N-phenylquinoline-2-carboxamide]	20.1 ± 1.4 µM	55.7 ± 3.5 µM	25.1 ± 1.9 µM	
O=C(Nc1ccc([N+](=O)[O-])cc1)C(c1ccccc1)N(Cc1ccccc1)C(=O)/C=C/c1ccc(C(F)(F)F)cc1 (stereo not shown) [Compound 25, (E)-N-Benzyl-N-(2-((4-nitrophenyl)amino)-2-oxo-1-phenylethyl)-3-(4-(trifluoromethyl)-phenyl)acrylamide]	90.2 ± 8.5 µM	129 ± 8.7 µM	95.4 ± 8.1 µM	
Cc1ccc(N(C(=O)CNC(=O)c2ccccc2)C(C(=O)Nc2ccc([N+](=O)[O-])cc2)c2ccc(C(F)(F)F)cc2)cc1 (stereo not shown) [Compound 12, N-(2-((2-((4-Nitrophenyl)amino)-2-oxo-1-(4-(trifluoromethyl)phenyl)ethyl)(p-tolyl)amino)-2-oxoethyl)benzamide]	73.1 ± 6.6 µM	98.2 ± 8.1 µM	65.3 ± 4.7 µM	
O=C(Nc1ccc([N+](=O)[O-])cc1)C(c1ccc(C(F)(F)F)cc1)N(C(=O)c1ccccc1I)c1ccccc1 (stereo not shown) [Compound 7, 2-Iodo-N-(2-((4-nitrophenyl)amino)-2-oxo-1-(4-(trifluoromethyl)phenyl)ethyl)-N-phenyl-benzamide]	20.6 ± 1.5 µM	75.6 ± 5.8 µM	28.2 ± 1.4 µM	
Cc1ccc(N(C(=O)c2ccccc2Cl)C(C(=O)Nc2ccc([N+](=O)[O-])cc2)c2ccc(C(F)(F)F)cc2)cc1 (stereo not shown) [Compound 6, 2-Chloro-N-(2-((4-nitrophenyl)amino)-2-oxo-1-(4-(trifluoromethyl)phenyl)-ethyl)-N-(p-tolyl)benzamide]	39.9 ± 2.7 µM	50.1 ± 3.6 µM	54.2 ± 4.7 µM	
O=C(Nc1ccc([N+](=O)[O-])cc1)C(c1ccc(C(F)(F)F)cc1)N(Cc1ccccc1)C(=O)CNS(=O)(=O)c1ccccc1 (stereo not shown) [Compound 17, N-Benzyl-N-(2-((4-nitrophenyl)amino)-2-oxo-1-(4-(trifluoromethyl)phenyl)ethyl)-2-(phenylsulfonamido)acetamide]	40.8 ± 2.8 µM	50.2 ± 3.4 µM	57 ± 4.8 µM	
O=C(Nc1ccc([N+](=O)[O-])cc1)C(c1ccc(C(F)(F)F)cc1)N(C(=O)Cc1ccccc1)c1ccccc1 (stereo not shown) [Compound 9, 2-(N,2-Diphenylacetamido)-N-(4-nitrophenyl)-2-(4-(trifluoromethyl)phenyl)acetamide]	46.4 ± 2.8 µM	71.6 ± 5.7 µM	70.6 ± 6.1 µM	
O=C(NCC(=O)N(Cc1ccccc1)C(C(=O)Nc1ccc([N+](=O)[O-])cc1)c1ccc(C(F)(F)F)cc1)c1ccccc1 (stereo not shown) [Compound 16, N-(2-(Benzyl(2-((4-nitrophenyl)amino)-2-oxo-1-(4-(trifluoromethyl)phenyl)ethyl)amino)-2-oxoethyl)benzamide]	22.4 ± 0.8 µM	63.8 ± 4.8 µM	27.3 ± 1.5 µM	
O=C(Nc1ccc([N+](=O)[O-])cc1)C(c1ccccc1)N(C(=O)/C=C/c1ccc(C(F)(F)F)cc1)c1ccccc1 (stereo not shown) [Compound 23, (E)-N-(2-((4-Nitrophenyl)amino)-2-oxo-1-phenylethyl)-N-phenyl-3-(4-(trifluoromethyl)-phenyl)acrylamide]	26.1 ± 2.1 µM	30.9 ± 2.3 µM	30.3 ± 2.4 µM	
O=C(NCC(=O)N(c1ccccc1)C(C(=O)Nc1ccc([N+](=O)[O-])cc1)c1ccc(C(F)(F)F)cc1)c1ccccc1 (stereo not shown) [Compound 11, N-(2-((2-((4-Nitrophenyl)amino)-2-oxo-1-(4-(trifluoromethyl)phenyl)ethyl)(phenyl)amino)-2-oxoethyl)benzamide]	53.9 ± 4.4 µM	82.1 ± 7.3 µM	60.2 ± 4.9 µM	
Cc1ccc(N(C(=O)Cc2ccccc2)C(C(=O)Nc2ccc([N+](=O)[O-])cc2)c2ccc(C(F)(F)F)cc2)cc1 (stereo not shown) [Compound 10, N-(4-Nitrophenyl)-2-(2-phenyl-N-(p-tolyl)acetamido)-2-(4-(trifluoromethyl)phenyl)-acetamide]	71.5 ± 6.8 µM	83.3 ± 6.8 µM	84.4 ± 6.9 µM	
O=C(Nc1ccc([N+](=O)[O-])cc1)C(c1ccc(C(F)(F)F)cc1)N(C(=O)c1ccccc1Cl)c1ccccc1 (stereo not shown) [Compound 5, 2-Chloro-N-(2-((4-nitrophenyl)amino)-2-oxo-1-(4-(trifluoromethyl)phenyl)ethyl)-N-phenylbenzamide]	6.2 ± 0.3 µM	70.4 ± 5.1 µM	10.1 ± 0.6 µM	IC50 (EGFR^WT): 0.0021 ± 1e-05 µM; miRNA-200c expression, fold change compared to control (miRNA-200c [1]): 1.9 fold; fold reduction in the expression of TGF in comparison to untreated control (TGF [2]): 0.69 fold; miRNA-200c expression, fold change compared to control (miRNA-200c [3]): 3.1 fold; expression of TGF compared to untreated control (TGF [4]): 0.4 fold; fold reduction in the expression of c-Myc in comparison to untreated control (c-Myc [5]): 0.41 fold; miRNA-132 expression, fold change compared to control (miRNA-132 [6]): 2.4 fold; expression of c-Myc compared to untreated control (c-Myc [7]): 0.36 fold; upregulation of caspase-9 compared to the untreated control (caspase-9): 2.3 folds; fold more potent than 5-FU (A549 cells; A549 cells, ratio of IC50 values): 1.82 fold; expression of CD-44 compared to untreated control (CD-44): 0.5 fold; expression of VEGF compared to untreated control (VEGF): 0.5 fold; fold more potent than 5-FU (MDA-MB-231 cells; MDA-MB-231 cells, ratio of IC50 values): 1.42 fold; upregulation of caspase-3 compared to the untreated control (caspase-3): 1.8 folds; miRNA-132 expression, fold change compared to control (miRNA-132 [8]): 3.8 fold; expression of CD-133 compared to untreated control (CD-133): 0.7 fold; IC50 (EGFR^L858R/T790M/C797S): 0.19 ± 0.05 µM
O=C(Nc1ccc([N+](=O)[O-])cc1)C(c1ccc(C(F)(F)F)cc1)N(C(=O)CNS(=O)(=O)c1ccccc1)c1ccccc1 (stereo not shown) [Compound 13, N-(4-Nitrophenyl)-2-(N-phenyl-2-(phenylsulfonamido)acetamido)-2-(4-(trifluoromethyl)-phenyl)acetamide]	64.1 ± 5.9 µM	98.5 ± 7.4 µM	73.9 ± 5.3 µM	
O=C(Nc1ccc([N+](=O)[O-])cc1)C(c1ccc(C(F)(F)F)cc1)N(Cc1ccccc1)C(=O)Cc1ccccc1 (stereo not shown) [Compound 15, N-Benzyl-N-(2-((4-nitrophenyl)amino)-2-oxo-1-(4-(trifluoromethyl)phenyl)-ethyl)-2-phenyl-acetamide]	61.1 ± 4.5 µM	69.4 ± 4.7 µM	65.7 ± 5.4 µM	
Cc1ccc(N(C(=O)/C=C/c2ccc(C(F)(F)F)cc2)C(C(=O)Nc2ccc([N+](=O)[O-])cc2)c2ccccc2)cc1 (stereo not shown) [Compound 24, (E)-N-(2-((4-Nitrophenyl)amino)-2-oxo-1-phenylethyl)-N-(p-tolyl)-3-(4-(trifluoromethyl)-phenyl)acrylamide]	20.4 ± 1.7 µM	54.2 ± 4.1 µM	22.1 ± 1.6 µM	
N.N.[Cl][Pt][Cl] [Cisplatin, cisplatin, reference compound]				IC50 (A549 cells; MTT assay, 48 h, mean ± SEM): 10.1 ± 0.7 µM; IC50 (MDA-MB-231 cells; MTT assay, 48 h, mean ± SEM): 12.2 ± 0.8 µM
O=c1[nH]cc(F)c(=O)[nH]1 [Compound 5-FU, 5-fluorouracil, reference compound]	11.3 ± 1.1 µM	7.2 ± 0.5 µM	14.4 ± 0.9 µM	
Cc1ccc(N(C(=O)c2ccccc2I)C(C(=O)Nc2ccc([N+](=O)[O-])cc2)c2ccc(C(F)(F)F)cc2)cc1 (stereo not shown) [Compound 8, 2-Iodo-N-(2-((4-nitrophenyl)amino)-2-oxo-1-(4-(trifluoromethyl)phenyl)ethyl)-N-(p-tolyl)-benzamide]	20.5 ± 1.1 µM	62.2 ± 4.2 µM	27.1 ± 1.8 µM	
Cc1ccc(N(C(=O)CNS(=O)(=O)c2ccccc2)C(C(=O)Nc2ccc([N+](=O)[O-])cc2)c2ccc(C(F)(F)F)cc2)cc1 (stereo not shown) [Compound 14, N-(4-Nitrophenyl)-2-(2-(phenylsulfonamido)-N-(p-tolyl)acetamido)-2-(4-(trifluoromethyl)-phenyl)acetamide]	55.3 ± 4.2 µM	84.7 ± 6.9 µM	74.8 ± 6.1 µM	
Cc1ccc(N(C(=O)c2ccc3ccccc3n2)C(C(=O)Nc2ccc([N+](=O)[O-])cc2)c2ccc(C(F)(F)F)cc2)cc1 (stereo not shown) [Compound 19, N-(2-((4-Nitrophenyl)amino)-2-oxo-1-(4-(trifluoromethyl)phenyl)ethyl)-N-(p-tolyl)-quinoline-2-carboxamide]	46.2 ± 4.1 µM	50.1 ± 3.3 µM	73.1 ± 5.7 µM	
